Common to all, as to type: cell-based
The target of one test is Ryanodine receptor 2 (Mus musculus, UniProt E9Q401). The test is described as follows: Inhibition of Full length wild type mouse RyR2 expressed in Flp-In-T-REx-293 cells assessed as increase in Ca2+ release endoplasmic reticulum by flex-station 3 fluorometer analysis.
Test [1] concerns the target Ryanodine receptor 2 (Mus musculus) (UniProt E9Q401). Kind of test: Inhibition of Full length mouse RyR2 expressed in human Flp-In-T-REx-293 cells.
Test [2] deals with HEK293. Kind of test: Inhibition of RyR1 R2163C mutant (unknown origin) expressed in HEK293 cells. Conditions: Homo sapiens.
The target in test [3] is Ryanodine receptor 2 (Mus musculus) (UniProt E9Q401). The test is described as follows: Inhibition of Full length wild type mouse RyR2 expressed in Flp-In-T-REx-293 cells assessed as increase in Ca2+ release in endoplasmic reticulum at 30 uM by flex-station 3 fluorometer analysis.
Sequence of Ryanodine receptor 2 (Mus musculus) (E9Q401 whole entry): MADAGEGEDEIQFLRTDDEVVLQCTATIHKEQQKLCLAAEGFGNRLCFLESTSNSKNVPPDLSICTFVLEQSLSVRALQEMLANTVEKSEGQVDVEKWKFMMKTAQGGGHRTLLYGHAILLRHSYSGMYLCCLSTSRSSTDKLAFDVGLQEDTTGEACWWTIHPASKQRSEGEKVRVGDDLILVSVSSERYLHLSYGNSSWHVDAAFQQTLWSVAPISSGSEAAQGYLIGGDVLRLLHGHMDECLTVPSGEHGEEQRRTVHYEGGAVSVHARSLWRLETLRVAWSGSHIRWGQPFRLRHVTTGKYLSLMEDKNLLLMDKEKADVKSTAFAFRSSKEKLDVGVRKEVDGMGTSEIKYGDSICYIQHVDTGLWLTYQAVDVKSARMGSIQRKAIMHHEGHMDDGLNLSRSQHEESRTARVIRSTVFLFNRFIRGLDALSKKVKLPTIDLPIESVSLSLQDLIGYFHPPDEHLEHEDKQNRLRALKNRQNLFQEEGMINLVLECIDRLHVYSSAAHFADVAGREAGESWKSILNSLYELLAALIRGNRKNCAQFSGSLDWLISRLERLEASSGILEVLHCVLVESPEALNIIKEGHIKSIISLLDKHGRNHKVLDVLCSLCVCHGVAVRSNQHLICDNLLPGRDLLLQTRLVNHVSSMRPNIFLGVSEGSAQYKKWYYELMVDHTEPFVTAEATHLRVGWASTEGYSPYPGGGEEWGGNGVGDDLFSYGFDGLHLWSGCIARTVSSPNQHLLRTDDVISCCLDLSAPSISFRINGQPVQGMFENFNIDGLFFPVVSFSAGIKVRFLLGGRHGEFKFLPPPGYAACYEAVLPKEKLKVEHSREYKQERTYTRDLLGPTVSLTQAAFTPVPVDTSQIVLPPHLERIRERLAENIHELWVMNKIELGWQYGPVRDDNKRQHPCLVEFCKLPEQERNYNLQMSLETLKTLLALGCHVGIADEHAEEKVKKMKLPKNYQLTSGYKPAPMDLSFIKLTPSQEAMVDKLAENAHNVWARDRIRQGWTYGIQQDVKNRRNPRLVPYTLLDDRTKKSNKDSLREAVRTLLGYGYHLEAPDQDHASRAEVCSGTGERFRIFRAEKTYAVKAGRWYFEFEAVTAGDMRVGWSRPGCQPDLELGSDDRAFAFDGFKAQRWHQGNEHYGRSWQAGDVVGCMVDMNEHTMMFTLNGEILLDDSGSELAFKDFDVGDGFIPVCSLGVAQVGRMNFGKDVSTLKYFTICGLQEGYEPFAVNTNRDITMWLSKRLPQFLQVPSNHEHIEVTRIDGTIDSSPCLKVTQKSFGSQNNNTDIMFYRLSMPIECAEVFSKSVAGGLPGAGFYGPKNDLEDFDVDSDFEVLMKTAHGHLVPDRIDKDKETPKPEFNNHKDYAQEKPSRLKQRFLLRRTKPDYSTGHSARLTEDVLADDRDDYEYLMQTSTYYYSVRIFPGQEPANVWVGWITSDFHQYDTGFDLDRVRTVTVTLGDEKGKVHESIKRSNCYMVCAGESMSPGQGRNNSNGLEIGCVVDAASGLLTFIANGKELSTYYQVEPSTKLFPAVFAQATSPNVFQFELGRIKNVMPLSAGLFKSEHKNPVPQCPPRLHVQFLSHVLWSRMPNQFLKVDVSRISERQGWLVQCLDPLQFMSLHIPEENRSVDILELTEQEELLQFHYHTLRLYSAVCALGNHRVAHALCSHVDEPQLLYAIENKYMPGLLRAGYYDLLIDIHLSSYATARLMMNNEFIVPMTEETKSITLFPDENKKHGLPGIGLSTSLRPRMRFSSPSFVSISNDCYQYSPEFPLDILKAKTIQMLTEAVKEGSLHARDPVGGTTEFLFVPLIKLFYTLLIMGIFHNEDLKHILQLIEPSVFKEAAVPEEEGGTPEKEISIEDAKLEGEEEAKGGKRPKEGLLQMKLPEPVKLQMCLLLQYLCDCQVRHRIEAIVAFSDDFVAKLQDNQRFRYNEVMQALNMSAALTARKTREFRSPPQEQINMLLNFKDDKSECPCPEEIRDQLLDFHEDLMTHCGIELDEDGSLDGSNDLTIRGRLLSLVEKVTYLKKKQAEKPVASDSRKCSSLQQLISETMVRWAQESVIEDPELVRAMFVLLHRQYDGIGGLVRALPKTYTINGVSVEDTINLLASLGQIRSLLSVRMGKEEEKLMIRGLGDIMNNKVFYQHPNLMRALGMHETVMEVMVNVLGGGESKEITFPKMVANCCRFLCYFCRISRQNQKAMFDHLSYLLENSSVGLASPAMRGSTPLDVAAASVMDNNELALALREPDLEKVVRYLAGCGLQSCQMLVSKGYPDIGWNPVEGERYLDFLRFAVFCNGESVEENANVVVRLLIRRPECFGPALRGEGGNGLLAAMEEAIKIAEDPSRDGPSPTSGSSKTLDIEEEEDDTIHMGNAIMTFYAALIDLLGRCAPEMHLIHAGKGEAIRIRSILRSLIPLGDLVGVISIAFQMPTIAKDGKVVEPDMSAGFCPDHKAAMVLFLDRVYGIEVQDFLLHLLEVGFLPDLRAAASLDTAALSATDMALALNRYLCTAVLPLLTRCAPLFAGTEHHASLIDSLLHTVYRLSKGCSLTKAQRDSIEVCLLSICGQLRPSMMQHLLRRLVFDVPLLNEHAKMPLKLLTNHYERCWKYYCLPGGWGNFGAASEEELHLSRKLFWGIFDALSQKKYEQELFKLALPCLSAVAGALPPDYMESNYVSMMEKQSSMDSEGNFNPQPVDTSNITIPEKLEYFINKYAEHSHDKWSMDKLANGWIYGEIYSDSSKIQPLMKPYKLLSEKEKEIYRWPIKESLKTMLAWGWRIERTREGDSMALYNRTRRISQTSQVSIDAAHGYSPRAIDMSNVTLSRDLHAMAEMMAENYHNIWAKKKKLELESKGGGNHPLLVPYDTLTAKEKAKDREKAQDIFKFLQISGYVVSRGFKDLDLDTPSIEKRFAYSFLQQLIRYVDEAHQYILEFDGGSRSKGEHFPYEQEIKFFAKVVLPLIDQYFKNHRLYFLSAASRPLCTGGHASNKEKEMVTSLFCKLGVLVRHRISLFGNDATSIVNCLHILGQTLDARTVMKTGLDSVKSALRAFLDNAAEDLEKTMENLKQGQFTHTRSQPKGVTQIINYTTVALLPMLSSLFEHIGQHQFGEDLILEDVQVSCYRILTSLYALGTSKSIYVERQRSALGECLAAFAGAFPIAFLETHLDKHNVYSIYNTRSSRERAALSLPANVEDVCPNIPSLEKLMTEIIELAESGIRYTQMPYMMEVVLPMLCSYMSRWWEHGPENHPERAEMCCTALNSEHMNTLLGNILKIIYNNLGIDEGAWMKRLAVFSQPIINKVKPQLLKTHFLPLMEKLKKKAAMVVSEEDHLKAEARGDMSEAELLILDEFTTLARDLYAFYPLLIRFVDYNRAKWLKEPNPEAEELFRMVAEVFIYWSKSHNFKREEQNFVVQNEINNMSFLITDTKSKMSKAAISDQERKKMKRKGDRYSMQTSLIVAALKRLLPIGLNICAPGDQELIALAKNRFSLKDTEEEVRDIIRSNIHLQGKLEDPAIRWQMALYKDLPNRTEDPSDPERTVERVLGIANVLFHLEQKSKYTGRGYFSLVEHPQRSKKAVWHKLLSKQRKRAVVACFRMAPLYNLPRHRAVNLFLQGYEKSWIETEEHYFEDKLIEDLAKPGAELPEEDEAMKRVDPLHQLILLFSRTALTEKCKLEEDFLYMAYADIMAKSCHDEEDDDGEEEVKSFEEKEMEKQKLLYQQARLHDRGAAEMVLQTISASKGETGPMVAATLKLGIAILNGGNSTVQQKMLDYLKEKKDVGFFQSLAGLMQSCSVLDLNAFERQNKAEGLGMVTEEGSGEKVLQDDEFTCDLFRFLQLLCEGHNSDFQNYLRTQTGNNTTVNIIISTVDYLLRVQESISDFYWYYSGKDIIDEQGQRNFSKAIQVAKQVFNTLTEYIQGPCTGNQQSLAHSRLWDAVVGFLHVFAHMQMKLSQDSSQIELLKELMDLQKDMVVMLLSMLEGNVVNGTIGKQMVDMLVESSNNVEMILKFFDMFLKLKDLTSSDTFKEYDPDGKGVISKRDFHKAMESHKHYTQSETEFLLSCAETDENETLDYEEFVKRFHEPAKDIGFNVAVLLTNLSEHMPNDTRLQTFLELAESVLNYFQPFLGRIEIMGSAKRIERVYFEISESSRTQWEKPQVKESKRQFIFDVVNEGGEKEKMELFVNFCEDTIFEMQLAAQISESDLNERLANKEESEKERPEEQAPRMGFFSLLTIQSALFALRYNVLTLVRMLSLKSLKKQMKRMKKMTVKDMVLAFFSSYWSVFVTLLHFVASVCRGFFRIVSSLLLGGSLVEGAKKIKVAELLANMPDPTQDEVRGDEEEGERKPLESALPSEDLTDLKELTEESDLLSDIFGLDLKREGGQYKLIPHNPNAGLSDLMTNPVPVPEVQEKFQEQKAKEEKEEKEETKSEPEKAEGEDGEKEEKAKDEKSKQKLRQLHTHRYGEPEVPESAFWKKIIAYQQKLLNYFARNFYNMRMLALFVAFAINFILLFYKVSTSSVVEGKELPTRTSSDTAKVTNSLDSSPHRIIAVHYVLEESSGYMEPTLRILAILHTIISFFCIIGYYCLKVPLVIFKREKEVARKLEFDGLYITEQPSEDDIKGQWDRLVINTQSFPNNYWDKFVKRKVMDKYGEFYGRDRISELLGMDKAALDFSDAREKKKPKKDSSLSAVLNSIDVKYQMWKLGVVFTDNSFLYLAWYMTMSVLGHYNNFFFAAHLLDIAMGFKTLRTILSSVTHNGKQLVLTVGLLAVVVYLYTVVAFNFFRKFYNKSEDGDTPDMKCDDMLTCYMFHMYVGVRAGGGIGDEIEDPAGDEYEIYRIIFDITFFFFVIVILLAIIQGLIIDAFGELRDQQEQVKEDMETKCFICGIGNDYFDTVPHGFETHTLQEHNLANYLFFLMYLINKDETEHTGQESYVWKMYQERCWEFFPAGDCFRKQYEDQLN
The test system of test [4] is HEK293. The test is described as follows: Inhibition of RyR3 R2163C mutant (unknown origin) expressed in HEK293 cells assessed as caffeine-induced increase in Ca2+ release at 100 uM. To be noted: Homo sapiens.
Test [5] has as its system Cardiomyocyte. The test is described as follows: Inhibition of RyR2 R420W mutant in mouse Cardiomyocyte assessed as 0.5 Hz field-pulse stimulated suppression of abnormal Ca2+ waves incubated for 3 mins by ROI analysis.
The target in test [6] is Ryanodine receptor 1 (Homo sapiens) (UniProt P21817). Kind of test: Inhibition of RyR1 (unknown origin) expressed in HEK293 cells assessed as caffeine-induced increase in Ca2+ release at 100 uM by flex-station 3 fluorometer analysis.
Test [7] concerns Cardiomyocyte. Kind of test: Inhibition of RyR2 R420W mutant in mouse Cardiomyocyte assessed as 0.5 Hz field-pulse stimulated suppression of abnormal Ca2+ waves at 30 to 100 nM incubated for 15 seconds by ROI analysis. Conditions: dose 30-100 nM, time 15.0 sec.
Test [8] concerns the target Ryanodine receptor 2 (Mus musculus) (UniProt E9Q401). Kind of test: Inhibition of Full length wild type mouse RyR2 expressed in Flp-In-T-REx-293 cells assessed as caffeine-induced increase in Ca2+ release in endoplasmic reticulum at 0.0001 to 100 uM by flex-station 3 fluorometer analysis. Conditions: dose 0.0001-100 µM.

In ChEMBL document CHEMBL5634156, “A potent and selective cis-amide inhibitor of ryanodine receptor 2 as a candidate for cardiac arrhythmia treatment” (Eur J Med Chem, 2023) one finds EC50 and inhibition data, which are given here for 39 compounds.

Structures are written as SMILES. Activity calls are given as the source filed them. The rule behind the calls is not given here.

Sequence of Ryanodine receptor 2 (E9Q401 whole entry): as above

As a reminder, the EC50 is the concentration at which the effect is half-maximal. `COc1cccc(-c2nnn(CC(=O)Nc3ccccc3)n2)c1`: the EC50 at Ryanodine receptor 2 is greater than 30000 nM. On the same count and under the same terms, to `CN(C(=O)Cn1nnc(-c2ccccc2)n1)c1ccc(F)cc1` belongs 50 nM. On to `CCN(C(=O)Cn1nnc(-c2ccccc2)n1)c1ccccc1`, for which the inhibition entry in test [1] was “Active”. In the test on HEK293 [2], the inhibition result is “inactive”. For the same compound, the EC50 on Ryanodine receptor 2 was found to be 4080 nM. As to `CN(C(=O)Cn1nnc(-c2cccc(F)c2)n1)c1ccccc1`, the EC50 on Ryanodine receptor 2 was 96 nM. Same read-out and setting: under `COc1cccc(-c2nnn(CC(=O)N(C)c3ccc(OC)c(OC)c3)n2)c1` stands greater than 30000 nM; under `COc1cc(-c2nnn(CC(=O)N(C)c3ccc(F)cc3)n2)ccc1F`, 59 nM. As to `CN(C(=O)Cn1nnc(-c2ccccc2)n1)c1ccccc1F`, on Ryanodine receptor 2, the concentration for a half-maximal effect (EC50) was found to be 859 nM. The same measure, in the same setting: to `COc1ccccc1-c1nnn(CC(=O)N(C)c2ccccc2)n1` belongs 2920 nM; to `CN(C(=O)Cn1nnc(-c2ccccc2F)n1)c1ccccc1`, 460 nM; to `O=C(Cn1nnc(-c2cccc(F)c2)n1)N1CCc2ccccc21`, greater than 30000 nM. Consider `O=C(Cn1nnc(-c2cccc(F)c2)n1)Nc1ccc(F)cc1`, for which the EC50 on Ryanodine receptor 2 is greater than 30000 nM.

Turning to `CN(C(=O)Cn1nnc(-c2ccc(F)cc2)n1)c1ccccc1`, the 50% effective concentration (EC50) at Ryanodine receptor 2 was 220 nM. The same measure, in the same setting: under `Nc1nc2ccc(OC(F)(F)F)cc2s1` [RILUZOLE] stands 9900 nM. Still for that read-out and setting: to `CN(C(=O)Cn1nnc(-c2cccc(F)c2)n1)c1ccc(F)cc1` belongs 34 nM. On the same count and under the same terms, to `COc1cccc(-c2nnn(CC(=O)N(C)c3ccc(OC)c(F)c3)n2)c1` belongs 48 nM; to `COc1ccc(-c2nnn(CC(=O)N(C)c3ccc(F)cc3)n2)cc1OC`, 1140 nM; to `COc1cccc(N(C)C(=O)Cn2nnc(-c3ccccc3)n2)c1`, 25000 nM. Regarding `O=C(Cn1nnc(-c2cc(F)cc(F)c2)n1)Nc1ccc(F)cc1`, at Ryanodine receptor 2, the EC50 was greater than 30000 nM. Same read-out and setting: to `CN(C(=O)Cn1nnc(-c2cc(F)cc(F)c2)n1)c1ccccc1` belongs 22 nM. Take `CN(C(=O)Cn1nnc(-c2cc(F)cc(F)c2)n1)c1ccc(F)cc1`: the inhibition result (in test [3]; with HEK293 [4]; in test [6]) was “inactive” in each case. Besides, the inhibition entry (in the test with Cardiomyocyte [5]; with Cardiomyocyte [7]; in test [8]) was “Active” each time. Also, the EC50 at Ryanodine receptor 2 is 13 nM. In the case of `COc1ccc(-c2nnn(CC(=O)N(C)c3ccccc3)n2)cc1`, the EC50 on Ryanodine receptor 2 was 1230 nM. On the same count and under the same terms, under `COc1ccc(N(C)C(=O)Cn2nnc(-c3cccc(F)c3)n2)cc1` stands 28 nM; under `O=C(Cn1nnc(-c2ccccc2)n1)Nc1ccccc1`, greater than 30000 nM; under `COc1ccccc1-c1nnn(CC(=O)Nc2ccccc2)n1`, greater than 30000 nM.

On to `CN(C(=O)Cn1nnc(-c2ccccc2)n1)c1ccccc1`, for which the 50% effective concentration (EC50) on Ryanodine receptor 2 came out at 696 nM.

As to `COc1cccc(-c2nnn(CC(=O)Nc3ccc(F)cc3)n2)c1`, at Ryanodine receptor 2, the EC50 was greater than 30000 nM. `CC(C)NCC(O)c1ccc(O)c(O)c1` (stereo not drawn): the inhibition entry in the test on Cardiomyocyte [5] and with Cardiomyocyte [7] was “inactive” each time. On to `COc1cccc(-c2nnn(CC(=O)N3CCc4ccccc43)n2)c1`, for which, on Ryanodine receptor 2, the half-maximal effective concentration (EC50) is greater than 30000 nM. Still for that read-out and setting: under `CN(C(=O)Cn1nnc(-c2ccccc2)n1)c1cccc(F)c1` stands 234 nM. Still for that read-out and setting: under `COc1ccc(N(C)C(=O)Cn2nnc(-c3ccccc3)n2)cc1` stands 136 nM. Same read-out and setting: under `CCCN(C(=O)Cn1nnc(-c2ccccc2)n1)c1ccccc1` stands 29400 nM. With `COc1ccccc1N(C)C(=O)Cn1nnc(-c2ccccc2)n1`, the EC50 at Ryanodine receptor 2 is greater than 30000 nM. In the case of `COc1cccc(-c2nnn(CC(=O)N(C)c3ccccc3)n2)c1`, the EC50 at Ryanodine receptor 2 turned out to be 180 nM.

`COc1cccc(-c2nnn(CC(=O)N(C)c3ccc(F)cc3)n2)c1`: the 50% effective concentration (EC50) at Ryanodine receptor 2 was 23 nM. Still for that read-out and setting: to `COc1ccc(NC(=O)Cn2nnc(-c3ccccc3)n2)cc1` belongs greater than 30000 nM; to `COC(=O)c1c(C)cc(O)cc1O` [METHYL ORSELLINATE], 1100 nM. On the same count and under the same terms, to `COc1ccc(-c2nnn(CC(=O)Nc3ccccc3)n2)cc1` belongs greater than 30000 nM; to `COc1ccc(N(C)C(=O)Cn2nnc(-c3cccc(OC)c3)n2)cc1`, 26 nM. Still for that read-out and setting: to `O=C(Cn1nnc(-c2cccc(F)c2)n1)Nc1ccccc1` belongs greater than 30000 nM.
